# Measurements from article PMC12454603 (Archives of Toxicology, 2025).
# “And” between values parts separate entries of the source, which are not always exact repeats. Equal values may be shown once.
# Legend:
# rat liver S9 [1] = experiment: Glucuronidation of 3-OH-8-MBaP in incubations with rat liver S9; type: in vitro ADME
# Method: (§1) The conjugation of 3-OH-8-MBaP with glucuronic acid was studied in incubations with rat liver S9 in vitro. The incubation time and S9 protein concentration were optimized to ascertain linearity of glucuronidation with time and the amount of S9 protein. The incubation was performed with a 200 µL mixture in glass vials, and consisted of (final concentrations) […] Tris buffer (pH 7.4), 0.1 mg/ml pooled rat liver S9, 3 mM UDPGA, 5 mM MgCl2, 0.025 mg/ml alamethicin, and 0–100 µM 3-OH-8-MBaP. No metabolites were formed in control incubations without either rat liver S9 or co-factor UDPGA. The final concentration of substrate vehicle (DMSO) in the incubation mixture was 1% (v/v). The incubation mixtures without substrate were pre-incubated at 37 °C for 1 min. The reaction was initiated by adding substrate to the incubation mixtures that were subsequently incubated at 37 °C for 20 min, after which the reaction was terminated by adding 100 µL ice-cold acetonitrile. The incubation mixture was subsequently centrifuged at 3717g at 4 °C for 5 min. The supernatant was collected for ultra-performance liquid chromatography (UPLC) analysis.
# (§2) An Acquity UPLC system with a photodiode array (PDA) detector was used to quantify the metabolites formed in the glucuronidation and sulfation incubations. The supernatants of the incubation samples were injected onto an Acquity UPLC BEH® C18 column ([…], 1.7 µm, Waters, Milford, MA). The total running time per sample was 22 min with a flow rate of 0.6 ml/min. The temperature of column and auto sampler was 40 °C and 10 °C, respectively. The injection volume was 3.5 µL and the detection wavelength ranged from 190 to 400 nm. Two eluents were used including A (nanopure with 0.1% (v/v) TFA) and B (acetonitrile with 0.1% (v/v) TFA). The gradient elution started from 90% A and 10% B applied from 0.0 min to 0.5 min, which was changed to 10% A and 90% B from 0.5 to 15.5 min and then kept at 10% A and 90% B from 15.5 min to 18.5 min, and changed back to 90% A and 10% B from 18.5 to 22.0 min. Metabolites were quantified as previously described in our study on microsomal metabolism of BaP and several of its methyl substituted analogs (Wang et al [2022]).
# (§3) The concentration of the glucuronidated and sulfated metabolites was further used to calculate the velocity of the enzymatic reaction expressed in nmol/min/mg S9 protein. The curve reflecting the substrate (3-OH-8-MBaP) concentration-dependent velocity of the metabolite formation was fitted by the Michaelis–Menten equation using GraphPad Prism 5 (California, USA). The kinetic constants derived included the Km (µM) and Vmax (nmol/min/mg S9 protein).
# (§4) 3-OH-8-MBaP was subsequently modeled to be conjugated by glucuronidation and sulfation in the liver. The kinetic constants for these conjugation reactions were determined in incubation experiments described in Sect. […] The scaling factors from rat liver microsomes and rat liver S9 to the whole liver were 45 mg microsomal protein/g liver and 125 mg S9 protein/g liver, respectively (Houston and Galetin [2008]).
# [2] = as above; type: in vitro ADME; details: rat, pooled rat liver S9, pH 7.4, rat liver S9, UDPGA
# Method: as §1, §2, §3, §4
# [3] = system: ES-D3 cells (differentiation into contracting cardiomyocytes); experiment: ES-D3 cell differentiation assay of the mouse embryonic stem cell test (mEST); type: cell-based
# Method: The developmental toxicity of the test compounds was assessed by the inhibitory effect on the differentiation of cells of the ES-D3 cell line into contracting cardiomyocytes. The assay was performed essentially as previously described (Kamelia et al. [2020]). The cells were cultured on the lid of a 96-well plate in 45 hanging drops (volume 20 µL/drop) at a concentration of 37,500 cells/ml. The 96 wells were filled with 250 µL PBS to maintain the humidity. Sterile Eppendorf lids were placed at the corners of the 96-well plate to prevent the hanging drops from contacting the 96-well plate. The plates were sealed with micropore tape and incubated at 37 °C with 5% CO2 in a humidified atmosphere for 72 h. After 72 h, 5 ml exposure medium was prepared for each concentration of each test compound with 0.25% DMSO in a 60 × 15 mm petri dish. The formed embryonic bodies (EBs) in the hanging drops on the lid of the 96-well plate were washed off with exposure medium and collected in the petri dish. The Petri dish was subsequently incubated at 37 °C with 5% CO2 in a humidified atmosphere for 48 h. After 48 h, the EBs were transferred to a 24-well plate filled with 1 ml exposure medium per well. Each well contained 1 EB. The 24-well plates were incubated at 37 °C with 5% CO2 in a humidified atmosphere for 120 h. The number of EBs with contracting cardiomyocytes and the undifferentiated EBs were counted under a microscope. In the solvent (DMSO) control, the presence of more than 21 EBs with contracting cardiomyocytes out of 24 EBs indicates a valid assay. In each experiment, 0.5 µM (0.065 µg/ml) 5-FU was used as a positive control. The result of the differentiation assay is expressed as the fraction of differentiated EBs of the total number of EBs.
# The concentration–response data for the test compounds in the mEST were presented in three curves including curves for 1-day cytotoxicity, 5-day cytotoxicity, and 10-day differentiation assays. The obtained curves were fitted using the inhibition equation log (inhibitor) vs response (three parameters) option using GraphPad Prism software 5.0 (California, USA).
# rat liver S9 [4] = experiment: Sulfation of 3-OH-8-MBaP in incubations with rat liver S9; type: in vitro ADME
# Method: (§5) The conjugation of 3-OH-8-MBaP by sulfation was studied in incubations with rat liver S9 in vitro. The incubation time and S9 protein concentration were optimized to ascertain linearity of the sulfation reaction with respect to time and amount of protein. The 200 µL incubation mixture consisted of (final concentrations) […] Tris buffer (pH 7.4), 0.1 mg/ml rat liver S9, 0.2 mM PAPS and 0–100 µM 3-OH-8-MBaP. No metabolites were detected in control incubations without either rat liver S9 or co-factor PAPS. After 1-min pre-incubation of the incubation mixture without substrate, the reaction was initiated by adding substrate from a 100 times concentrated stock solution in DMSO (final concentration 1% DMSO (v/v)). The incubation mixture was incubated at 37 °C for 70 min after which 100 µL ice-cold acetonitrile was added to the incubation mixture to terminate the reaction. The incubation mixture was subsequently centrifuged at 3717g at 4 °C for 5 min. The supernatant was collected for subsequent UPLC analysis.
# as §2, §3, §4
# [5] = as above; type: in vitro ADME; details: rat, rat liver S9, pH 7.4, rat liver S9, PAPS
# Method: as §5, §2, §3, §4
# [6] = scaled to whole liver, liver weight 9.1 g
# [7] = scaled with 125 mg S9 protein/g liver
smiles,measurement,setting,value
"Cc1ccc2c(c1)cc1ccc3c(O)ccc4ccc2c1c43 [3-OH-8-MBaP, 3-Hydroxy-8-methyl-benzo[a]pyrene]",Km,"rat liver S9 [1]; rat liver S9, UDPGA",15.6 µM
same,"Vmax, glucuronidation of 3-OH-8-MBaP","rat liver S9 [1]; rat liver S9, UDPGA",6.92 nmol/min/mg S9 protein and 6.92^e nmol/min/mg S9 protein
same,"Scaled Vmax, glucuronidation of 3-OH-8-MBaP",rat liver S9 [1]; [6],470 µmol/h/liver
same,"Scaled Vmax, glucuronidation of 3-OH-8-MBaP",rat liver S9 [1]; [7],51.9 µmol/h/g liver
same,Km at 20 min,[2],16 µM
same,IC50,"[3]; Mus musculus, Cardiomyocyte, 240 h, read-out: IC50 for inhibition of differentiation of ES-D3 cells into beating cardiomyocytes",1400 nM
same,Fold difference between IC50 of 3-OH-8-MBaP and of 3-OHBaP (3-OH-8-MBaP lower),[3]; differentiation assay of the mEST,1.1 fold
same,Km,"rat liver S9 [4]; rat liver S9, PAPS",26.1 µM
same,"Vmax, sulfation of 3-OH-8-MBaP","rat liver S9 [4]; rat liver S9, PAPS",0.15 nmol/min/mg S9 protein and 0.15^e nmol/min/mg S9 protein
same,"Scaled Vmax, sulfation of 3-OH-8-MBaP",rat liver S9 [4]; [6],10 µmol/h/liver
same,"Scaled Vmax, sulfation of 3-OH-8-MBaP",rat liver S9 [4]; [7],1.16 µmol/h/g liver
same,Km at 70 min,[5],26 µM
